ChEMBL document CHEMBL1811842, “Synthesis and evaluation of biotinylated sansalvamide A analogs and their modulation of Hsp90” (Bioorg Med Chem Lett, 2011)
Calls of active or inactive are those of the source. The calls are words filed in the database; no cut-off is given here.

Target: Heat shock protein HSP90 (Homo sapiens) (UniProt P07900+P08238)
Test: Binding affinity to human HSP90-N-Middle Domain expressed in BL21 Escherichia coli after 2 hrs using silver staining by Pull down assay

Activity | Compound
Active | CC(C)C[C@@H]1NC(=O)[C@H](CCCCNC(=O)OCc2ccccc2)NC(=O)[C@H](Cc2ccccc2)NC(=O)[C@@H](Cc2ccccc2)N(C)C(=O)[C@H](CCCCNC(=O)CCOCCOCCOCCOCCNC(=O)CCCC[C@@H]2SC[C@@H]3NC(=O)N[C@@H]32)NC1=O
Active | CC(C)C[C@@H]1NC(=O)[C@H](CCCCNC(=O)OCc2ccccc2)NC(=O)[C@H](CCCCNC(=O)CCOCCOCCOCCOCCNC(=O)CCCC[C@@H]2SC[C@@H]3NC(=O)N[C@@H]32)NC(=O)[C@@H](Cc2ccccc2)N(C)C(=O)[C@H](C(C)C)NC1=O
Active | CC(C)[C@@H]1NC(=O)[C@H](CCCCNC(=O)CCOCCOCCOCCOCCNC(=O)CCCC[C@@H]2SC[C@@H]3NC(=O)N[C@@H]32)NC(=O)[C@H](CCCCNC(=O)OCc2ccccc2)NC(=O)[C@H](Cc2ccccc2)NC(=O)[C@@H](Cc2ccccc2)N(C)C1=O
